Results on 27 molecules are retold here after patent publication US7312188B2, “Peptide derivatives having β-secretase inhibitory activity” (priority 2003, dated 2007).

One may read the inhibition as how much of the control response was suppressed.

Numbered stars: 1 amine (or outer) side, 2 acyl side, 3 side chain; on linkers, the order of the positions; unused ones are H or OH. Square brackets hold non-standard residues; d marks the D form. Peptide text beside a SMILES is read from it. Apns = amino acid residue of (2S,3S)-3-amino-2-hydroxy-4-phenylbutanoic acid, O=C([C@@H](O)[C@H](Cc1ccccc1)N[*:1])[*:2]; β3hPhe(2R-OH) = O=C([C@H](O)[C@H](Cc1ccccc1)N[*:1])[*:2]; Oxalyl = O=C(C(=O)[*:2])[*:1]; 4Amb = NCc1ccc(C(=O)O)cc1; 4Abz = Nc1ccc(C(=O)O)cc1; Dap = NC[C@H](N)C(=O)O; Aib = CC(C)(N)C(=O)O

The assay addresses T1, recombinant human BACE-1 (rhBACE-1) (Homo sapiens, UniProt P56817).
T1 construct: expressed as only an extracellular region (amino acid 1-460 residues) of recombinant human β-secretase; His tag (C); purchased R&D systems (Minneapolis, Minn.); host or cells: murine myeloma cell line NS0
The assay can be described thus: BACE1 inhibitory activity, reverse phase HPLC quantitation of N-terminal fragment of fluorogenic substrate. Particulars: 1 μL of inhibitor solution in DMSO (100 μM) in 50 μL reaction; MES buffer pH 5.0; 37° C., 60 minutes. It counts as biochemical. The text has this: Experiment Regarding Measurement of BACE1 Inhibitory Activity
Enzyme Used in Measurement
As an enzyme having β-secretase activity, recombinant human BACE-1 (rhBACE-1) purchased from R&D systems (Minneapolis, Minn.) was used. rhBACE-1 is expressed as only an extracellular region (amino acid 1-460 residues) of recombinant human β-secretase, with a His tag at its carboxyl terminal in murine myeloma cell line, NS0. Purified secreted rhBACE1 is a mixture of a pro entity (about 75 kDa) and a mature entity (about 72 kDa).
Assessment of Enzyme Inhibitory Activity
Enzyme inhibitory activity of an inhibitor was assessed by quantitating an N-terminal fragment produced aftercleaving the substrate with BACE1 by reverse HPLC using (7-methoxycoumarin-4-yl)acetyl-[…]2,4-dinitrophenyl)-Arg-Arg-NH2 purchased from Peptide Institute (Osaka, Japan) as a substrate for BACE1. To 40 μL of 62.5 mM 2-(N-morpholino)ethansulfonic acid (MES)-CH3COOH—NaOH buffer (pH 5.0), were added 1 μL of a solution of an inhibitor diluted with DMSO (100 μM), 4 μL of rhBACE-1 (6.25 ng/μL), and 5 μL of an aqueous solution (50% DMSO) of 250 μM substrate (7-methoxycoumarin-4-yl)acetyl-[…]2,4-dinitrophenyl)-Arg-Arg-NH2 to initiate an enzyme reaction. After incubation at 37° C. for 60 minutes, 20 μL of 20% trichloroacetic acid was added to stop the reaction. And, inhibition % was calculated by measuring a fluorescent intensity of the N-terminal fragment (Ex, 328 nm; Em, 393 nm) using reverse phase HPLC (linear gradient of MeCN in aqueous TFA; flow rate, 1.0 mL/min).
BACE1 Inhibitory Activity
Enzyme inhibitory activity of an inhibitor was assessed by quantitating a N-terminal fragment produced after cleavage of a substrate with BACE1 by reverse phase HPLC using (7-methoxycoumarin-4-yl)acetyl-[…]2,4-dinitrophenyl)-Arg-Arg-NH2 purchased from Peptide Institute (Osaka, Japan) as a substrate for BACE1. Recombinant human BACE-1 purchased from R&D systems (Minneapolis, Minn.) was used. To 40 μL of 62.5 mM 2-(N-morpholino)ethansulfonic acid (MES)-CH3COOH—NaOH buffer (pH 5.0), were added 1 μL of a solution of an inhibitor diluted with DMSO (100 μM), 4 μL of BACE1 (6.25 ng/μL), and 5 μL of an aqueous solution (50% DMSO) of 250 μM substrate (7-methoxycoumarin-4-yl)acetyl-[…]2,4-dinitrophenyl)-Arg-Arg-NH2 to initiate an enzyme reaction. After incubation at 37° C. for 60 minutes, 20 μL of 20% trichloroacetic acid was added to stop a reaction. Inhibition % was calculated by measuring a fluorescent intensity of the N-terminal fragment (Ex, 328 nm; Em, 393 nm) using reverse phase HPLC (linear gradient of MeCN in aqueous TFA; flow rate, 1.0 mL/min).

T1 sequence (P56817 22-460 limits assumed): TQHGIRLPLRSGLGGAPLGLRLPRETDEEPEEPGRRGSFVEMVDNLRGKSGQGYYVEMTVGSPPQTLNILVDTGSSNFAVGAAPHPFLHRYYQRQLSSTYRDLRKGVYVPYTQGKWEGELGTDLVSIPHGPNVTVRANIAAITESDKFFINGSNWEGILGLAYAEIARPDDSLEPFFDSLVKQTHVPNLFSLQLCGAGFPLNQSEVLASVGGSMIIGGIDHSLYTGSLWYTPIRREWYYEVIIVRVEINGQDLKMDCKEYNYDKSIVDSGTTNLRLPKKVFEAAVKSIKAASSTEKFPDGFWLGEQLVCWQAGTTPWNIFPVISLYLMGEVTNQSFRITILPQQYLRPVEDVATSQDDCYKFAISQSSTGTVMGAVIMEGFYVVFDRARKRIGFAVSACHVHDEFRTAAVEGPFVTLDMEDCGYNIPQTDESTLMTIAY

Turning to `CC(C)C[C@H](NC(=O)[C@@H](NC(=O)[C@@H](N)CCC(=O)O)C(C)C)C(=O)N[C@@H](Cc1ccccc1)[C@@H](O)C(=O)N[C@@H](CC(=O)O)C(=O)NCc1ccc(C(=O)O)cc1` [Example 103] (H-EVL[β3hPhe(2R-OH)]D[4Amb]-OH), the inhibition at 2 µM amounted to 54.6%. On the same count and under the same terms, to `CC(C)C[C@H](NC(=O)[C@@H](NC(=O)[C@@H](N)CCC(=O)O)C(C)C)C(=O)N[C@@H](Cc1ccccc1)[C@@H](O)C(=O)N[C@@H](CC(C)C)C(=O)N[C@@H](C)C(=O)N[C@@H](CCC(=O)O)C(=O)N[C@@H](Cc1ccccc1)C(=O)O` [Example 107] (H-EVL[β3hPhe(2R-OH)]LAEF-OH) belongs 52.1%. As for “H-Glu-Val-Leu-Pns-Asp-Ala-Gln-Phe-OH (H-EVL[β3hPhe(2R-OH)]DAQF-OH; SMILES CC(C)C[C@H](NC(=O)[C@@H](NC(=O)[C@@H](N)CCC(=O)O)C(C)C)C(=O)N[C@@H](Cc1ccccc1)[C@@H](O)C(=O)N[C@@H](CC(=O)O)C(=O)N[C@@H](C)C(=O)N[C@@H](CCC(N)=O)C(=O)N[C@@H](Cc1ccccc1)C(=O)O) [Example 28]”, the “Activity (BACE1 inhibition %)” value is on record as 55.88%.

As to `CC(C)C[C@H](NC(=O)[C@@H](NC(=O)[C@@H](N)CNC(=O)C(=O)O)C(C)C)C(=O)N[C@@H](Cc1ccccc1)[C@@H](O)C(=O)N[C@@H](CC(=O)O)C(=O)Nc1ccc(C(=O)O)cc1` [Example 71] (H-[Dap](Oxalyl)VL[β3hPhe(2R-OH)]D[4Abz]-OH), the inhibition at 2 µM was 97.9%. On the same count and under the same terms, to `CCOC(=O)COc1c(Cl)cc(NC(=O)[C@H](O)[C@H](Cc2ccccc2)NC(=O)[C@H](CC(C)C)NC(=O)[C@@H](NC(=O)[C@@H](N)CCC(=O)O)C(C)C)cc1Cl` [Example 158] belongs 66.1%. As for `CC(C)C[C@H](NC(=O)[C@@H](NC(=O)[C@@H](N)CNC(=O)C(=O)O)C(C)C)C(=O)N[C@@H](Cc1ccccc1)[C@@H](O)C(=O)Nc1ccc(C(=O)O)cc1` [Example 68], the inhibition at 100 µM (stock) was 98.8%. With “H-Glu-Val-Leu-Pns-Asp-Ala-Leu-Phe-OH (H-EVL[β3hPhe(2R-OH)]DALF-OH; SMILES CC(C)C[C@H](NC(=O)[C@H](C)NC(=O)[C@H](CC(=O)O)NC(=O)[C@H](O)[C@H](Cc1ccccc1)NC(=O)[C@H](CC(C)C)NC(=O)[C@@H](NC(=O)[C@@H](N)CCC(=O)O)C(C)C)C(=O)N[C@@H](Cc1ccccc1)C(=O)O) [Example 30]”, the “Activity (BACE1 inhibition %)” value is reported as 56.57%.

For the molecule `CC(C)C[C@H](NC(=O)[C@@H](NC(=O)[C@@H](N)CCC(=O)O)C(C)C)C(=O)N[C@@H](Cc1ccccc1)[C@@H](O)C(=O)N[C@@H](CC(=O)O)C(=O)N[C@@H](C)C(=O)N1CCCCC1C(=O)O` (single isomer, unassigned) [Example 94], the inhibition at 2 µM was 61.8%. Same read-out and setting: under `CC(C)C[C@H](NC(=O)[C@@H](NC(=O)[C@@H](N)CCC(=O)O)C(C)C)C(=O)N[C@@H](Cc1ccccc1)[C@@H](O)C(=O)N[C@@H](CC(=O)O)C(=O)NC(C)(C)C(=O)N[C@@H](CCC(=O)O)C(=O)O` [Example 91] (H-EVL[β3hPhe(2R-OH)]D[Aib]E-OH) stands 68.9%; under `CC(C)C[C@H](NC(=O)[C@@H](NC(=O)[C@@H](N)CNC(=O)C(=O)O)C(C)C)C(=O)N[C@@H](CC1CCCCC1)[C@@H](O)C(=O)Nc1cccc(C(=O)O)c1` [Example 126], 98.9%. Turning to `CC(C)C[C@H](NC(=O)[C@@H](NC(=O)[C@@H](N)CNC(=O)C(=O)O)C(C)C)C(=O)N[C@@H](Cc1ccccc1)[C@@H](O)C(=O)Nc1cccc(C(=O)O)c1` [Example 69], the inhibition at 2 µM came out at 98.4%. On to `CC(C)C[C@H](NC(=O)[C@@H](NC(=O)[C@@H](N)CNC(=O)c1cc(N)cc(C(=O)O)c1)C(C)C)C(=O)N[C@@H](Cc1ccccc1)[C@@H](O)C(=O)Nc1cccc(C(N)=O)c1` [Example 171], for which the inhibition at 2 µM stood at 91.8%. Still for that read-out and setting: under `CC(C)C[C@H](NC(=O)[C@@H](NC(=O)[C@@H](N)CNC(=O)c1nnn[nH]1)C(C)C)C(=O)N[C@@H](Cc1ccccc1)[C@@H](O)C(=O)Nc1cccc(C(N)=O)c1` [Example 124] stands 97.3%; under `CC(C)C[C@H](NC(=O)[C@@H](NC(=O)[C@@H](N)CCC(=O)O)c1ccccc1)C(=O)N[C@@H](Cc1ccccc1)[C@@H](O)C(=O)Nc1cccc(C(=O)O)c1` [Example 169], 61.6%. On to “H-Glu-Val-Leu-Pns-Asp-Ala-Val-Phe-OH (H-EVL[β3hPhe(2R-OH)]DAVF-OH; SMILES CC(C)C[C@H](NC(=O)[C@@H](NC(=O)[C@@H](N)CCC(=O)O)C(C)C)C(=O)N[C@@H](Cc1ccccc1)[C@@H](O)C(=O)N[C@@H](CC(=O)O)C(=O)N[C@@H](C)C(=O)N[C@H](C(=O)N[C@@H](Cc1ccccc1)C(=O)O)C(C)C) [Example 29]”, for which the “Activity (BACE1 inhibition %)” value turned out to be 57.47%. For the molecule `CC(C)[C@H](NC(=O)[C@@H](N)CNC(=O)c1nnn[nH]1)C(=O)N[C@@H](CC1CCCCC1)C(=O)N[C@@H](Cc1ccccc1)[C@@H](O)C(=O)Nc1cccc(C(=O)O)c1` [Example 137], the inhibition at 2 µM worked out at 99.5%.

For the molecule `CC(C)C[C@H](NC(=O)[C@@H](NC(=O)[C@@H](N)CNC(=O)c1cccc(O)c1)C(C)C)C(=O)N[C@@H](Cc1ccccc1)[C@@H](O)C(=O)Nc1cccc(C(=O)O)c1` [Example 150], the inhibition at 2 µM was found to be 90.8%. Take `CC(C)[C@H](NC(=O)[C@@H](N)CCC(=O)O)C(=O)N[C@@H](Cc1ccc(Cl)c(Cl)c1)C(=O)N[C@@H](Cc1ccccc1)[C@@H](O)C(=O)Nc1cccc(C(=O)O)c1` [Example 170]: the inhibition at 2 µM amounted to 60.5%. Same read-out and setting: to `CC(C)C[C@H](NC(=O)[C@@H](NC(=O)[C@@H](N)CCC(=O)O)C(C)C)C(=O)N[C@@H](Cc1ccccc1)[C@@H](O)C(=O)N[C@@H](CC(=O)O)C(=O)N[C@@H](C)C(=O)N[C@@H](CC(=O)O)C(=O)O` [Example 98] (H-EVL[β3hPhe(2R-OH)]DAD-OH) belongs 58.4%.

As for “H-Glu-Val-Leu-Apns-Asp-Ala-Glu-Phe-OH ({H2N-Glu-Val-Leu-Apns}-DAEF-OH; SMILES CC(C)C[C@H](NC(=O)[C@@H](NC(=O)[C@@H](N)CCC(=O)O)C(C)C)C(=O)N[C@@H](Cc1ccccc1)[C@H](O)C(=O)N[C@@H](CC(=O)O)C(=O)N[C@@H](C)C(=O)N[C@@H](CCC(=O)O)C(=O)N[C@@H](Cc1ccccc1)C(=O)O) [Example 18]”, the “Activity (BACE1 inhibition %)” value amounted to 53.38%.

As to `CC[C@H](C)[C@H](NC(=O)[C@@H](NC(=O)[C@@H](N)CCC(=O)O)C(C)C)C(=O)N[C@@H](Cc1ccccc1)[C@@H](O)C(=O)Nc1cccc(C(=O)O)c1` [Example 153], the inhibition at 2 µM was 65.8%. Still for that read-out and setting: under `Cc1c(NC(=O)[C@H](O)[C@H](Cc2ccccc2)NC(=O)[C@H](CC(C)C)NC(=O)[C@@H](NC(=O)[C@@H](N)CCC(=O)O)C(C)C)cccc1C(=O)O` [Example 128] stands 53.6%. `CC(C)C[C@H](NC(=O)[C@@H](NC(=O)[C@@H](N)CNC(=O)c1nnn[nH]1)C(C)C)C(=O)N[C@@H](Cc1ccccc1)[C@@H](O)C(=O)Nc1cccc(-c2nnn[nH]2)c1` [Example 185]: the inhibition at 100 µM (stock) turned out to be 100%. On the same count and under the same terms, to `CC(C)C[C@H](NC(=O)[C@@H](NC(=O)[C@@H](N)CCC(=O)O)C(C)C)C(=O)N[C@@H](Cc1ccccc1)[C@@H](O)C(=O)NC1CCCC(C(=O)O)C1` (stereo partly drawn) [Example 155] belongs 69.7%. In the case of `CC(C)C[C@H](NC(=O)[C@@H](NC(=O)[C@@H](N)CCC(=O)O)C(C)C)C(=O)N[C@@H](Cc1ccccc1)[C@@H](O)C(=O)NCc1ccc(Cl)c(Cl)c1` [Example 162], the inhibition at 2 µM was found to be 71.5%. On the same count and under the same terms, to `CC(C)[C@H](NC(=O)[C@@H](N)CCC(=O)O)C(=O)N[C@@H](Cc1cccc2ccccc12)C(=O)N[C@@H](Cc1ccccc1)[C@@H](O)C(=O)Nc1cccc(C(=O)O)c1` [Example 165] belongs 73.7%. As to `CC(C)C[C@H](NC(=O)[C@@H](NC(=O)[C@H](CN)NC(=O)C(=O)O)C(C)C)C(=O)N[C@@H](Cc1ccccc1)[C@@H](O)C(=O)Nc1ccc(C(=O)O)cc1` [Example 74], the inhibition at 100 µM (stock) is 90.5%.
